The values below come from publication PMC10764907, “Aryl-quinoline-4-carbonyl hydrazone bearing different 2-methoxyphenoxyacetamides as potent α-glucosidase inhibitors; molecular dynamics, kinetic and structure–activity relationship studies” (Scientific Reports, 2024).

Data set [1] has as its target T1, α-glucosidase (Saccharomyces cerevisiae, UniProt P53341). Kind of data set: biochemical. The settings on record: for IC50: α-glucosidase inhibition, mean ± SD. The class given is biochemical.
Data set [2] is described as follows: Concentrations of precipitation in the α-glucosidase inhibition assay. The class given is physicochemical. The text has this: Table 1 The α-glucosidase inhibition assay of 11a–o. | column: Concentrations of precipitation (µM)
For data set [3], the target named is T1, α-glucosidase. Kind of data set: Enzyme kinetic studies (Lineweaver–Burk plot, secondary plot). It is filed as biochemical. The text has this:
This pattern indicates a competitive inhibition mechanism. […] Additionally, by plotting the Km values against different inhibitor concentrations, an estimation of the inhibition constant (Ki) was obtained.

The target in data set [4] is T1, α-glucosidase. The settings on record: cited from earlier work; for IC50: Fig. 1.
The subject of data set [5] is α-amylase. Details: method as in doi:10.1016/j.molstruc.2022.133650. The settings on record: at 108 μM; cited from earlier work.
Where [6] appears, read: previously reported quinoline inhibitors.

Read-outs that look alike come from different tables or passages of the source. Where only a bound is given, the exact number is not on record here.

T1 sequence (P53341 whole entry): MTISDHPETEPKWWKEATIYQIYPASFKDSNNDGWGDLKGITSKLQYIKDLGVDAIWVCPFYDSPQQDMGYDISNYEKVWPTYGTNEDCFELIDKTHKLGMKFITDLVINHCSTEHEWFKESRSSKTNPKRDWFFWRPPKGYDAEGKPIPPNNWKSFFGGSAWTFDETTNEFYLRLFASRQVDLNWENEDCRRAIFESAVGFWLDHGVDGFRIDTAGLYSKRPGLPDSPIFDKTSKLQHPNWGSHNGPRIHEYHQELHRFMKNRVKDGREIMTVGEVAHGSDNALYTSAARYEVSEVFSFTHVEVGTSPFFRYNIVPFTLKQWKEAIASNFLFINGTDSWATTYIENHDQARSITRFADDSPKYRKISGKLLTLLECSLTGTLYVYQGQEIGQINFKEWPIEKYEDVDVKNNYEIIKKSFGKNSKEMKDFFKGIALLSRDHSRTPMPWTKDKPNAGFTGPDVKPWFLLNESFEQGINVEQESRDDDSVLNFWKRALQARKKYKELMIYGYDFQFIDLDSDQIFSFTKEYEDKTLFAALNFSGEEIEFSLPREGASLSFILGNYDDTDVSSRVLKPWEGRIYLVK

By melting point is commonly meant the temperature of the solid-liquid transition. As usually defined, the IC50 is the concentration that gives 50% inhibition. With `COc1cc(C=NNC(=O)c2cc(-c3ccccc3)nc3ccccc23)ccc1OCC(=O)Nc1ccccc1C` [11a, 2-(2-methoxy-4-((2-(2-phenylquinoline-4-carbonyl)hydrazineylidene)methyl)phenoxy)-N-(o-tolyl)acetamide], the melting point is greater than 250 °C. Moreover, the IC50 in data set [1] amounted to 34.8 ± 1.1 µM.

`COc1cc(C=NNC(=O)c2cc(-c3ccccc3)nc3ccccc23)ccc1OCC(=O)Nc1ccc(C)cc1` [11b, 2-(2-methoxy-4-((2-(2-phenylquinoline-4-carbonyl)hydrazono)methyl)phenoxy)-N-(p-tolyl)acetamide] registered a melting point greater than 250 °C. Moreover, the “Concentrations of precipitation” value in data set [2] is on record as no less than 375 µM. The compound also gave an IC50 in data set [1] of 95.2 ± 1.2 µM.

Compound `COc1ccc(NC(=O)COc2ccc(C=NNC(=O)c3cc(-c4ccccc4)nc4ccccc34)cc2OC)cc1` [11c, 2-(2-methoxy-4-((2-(2-phenylquinoline-4-carbonyl)hydrazineylidene)methyl)phenoxy)-N-(4-methoxyphenyl)acetamide] gave a melting point greater than 250 °C. Also, in data set [1], it took 43.7 ± 1 µM to reach half-maximal inhibition (IC50).

On to `CCc1ccc(NC(=O)COc2ccc(C=NNC(=O)c3cc(-c4ccccc4)nc4ccccc34)cc2OC)cc1` [11d, N-(4-ethylphenyl)-2-(2-methoxy-4-((2-(2-phenylquinoline-4-carbonyl)hydrazono)methyl)phenoxy)acetamide], for which the melting point is greater than 250 °C. Moreover, the “Concentrations of precipitation” value in data set [2] was no less than 375 µM. For the same compound, in data set [1], the IC50 worked out at 156.8 ± 1.5 µM.

Compound `COc1cc(C=NNC(=O)c2cc(-c3ccccc3)nc3ccccc23)ccc1OCC(=O)Nc1ccc(F)cc1` [11e, N-(4-fluorophenyl)-2-(2-methoxy-4-((2-(2-phenylquinoline-4-carbonyl)hydrazono)methyl)phenoxy)acetamide] returned a melting point greater than 250 °C. Inhibition in data set [1] was half-maximal at 52.6 ± 0.6 µM (IC50).

As for `COc1cc(C=NNC(=O)c2cc(-c3ccccc3)nc3ccccc23)ccc1OCC(=O)Nc1ccc(Cl)cc1` [11f, N-(4-chlorophenyl)-2-(2-methoxy-4-((2-(2-phenylquinoline-4-carbonyl)hydrazono)methyl)phenoxy)acetamide], the melting point is greater than 250 °C. In data set [2], the “Concentrations of precipitation” value is on record as no less than 375 µM. The compound also had an IC50 in data set [1] greater than 750 µM.

The compound `COc1cc(C=NNC(=O)c2cc(-c3ccccc3)nc3ccccc23)ccc1OCC(=O)Nc1ccc(Br)cc1` [11g, N-(4-bromophenyl)-2-(2-methoxy-4-((2-(2-phenylquinoline-4-carbonyl)hydrazineylidene)methyl)phenoxy)acetamide] gave a melting point greater than 250 °C. The “Concentrations of precipitation” value in data set [2] is given as no less than 375 µM. In data set [1], this compound had an IC50 of 180.9 ± 1.7 µM.

In turn, `COc1ccc(-c2cc(C(=O)NN=Cc3ccc(OCC(=O)Nc4ccccc4)c(OC)c3)c3ccccc3n2)cc1` [11h, 2-(2-methoxy-4-((2-(2-(4-methoxyphenyl)quinoline-4-carbonyl)hydrazono)methyl)phenoxy)-N-phenylacetamide] showed a melting point greater than 250 °C. Moreover, the “Concentrations of precipitation” value in data set [2] is reported as no less than 375 µM. Further, in data set [1] (vs acarbose), the “fold more potent vs positive control” value is “more than 11 fold”. The same compound had an IC50 in data set [1] of 62.4 ± 0.9 µM.

`COc1ccc(-c2cc(C(=O)NN=Cc3ccc(OCC(=O)Nc4ccccc4C)c(OC)c3)c3ccccc3n2)cc1` [11i, 2-(2-methoxy-4-((2-(2-(4-methoxyphenyl)quinoline-4-carbonyl)hydrazono)methyl)phenoxy)-N-(o-tolyl)acetamide] displayed a melting point greater than 250 °C. Further, in data set [1], it took 71.2 ± 0.6 µM to reach half-maximal inhibition (IC50).

With `COc1ccc(NC(=O)COc2ccc(C=NNC(=O)c3cc(-c4ccc(OC)cc4)nc4ccccc34)cc2OC)cc1` [11j, 2-(2-methoxy-4-((2-(2-(4-methoxyphenyl)quinoline-4-carbonyl)hydrazono)methyl)phenoxy)-N-(4-methoxyphenyl)acetamide], the melting point was greater than 250 °C. Moreover, in data set [2], the “Concentrations of precipitation” value was no less than 190 µM. Also, it took 61.8 ± 0.5 µM to reach half-maximal inhibition in data set [1] (IC50).

As usually defined, the Ki is a measure of affinity in units of concentration, obtained from inhibition or displacement. As to `CCc1ccc(NC(=O)COc2ccc(C=NNC(=O)c3cc(-c4ccc(OC)cc4)nc4ccccc34)cc2OC)cc1` [11k, N-(4-ethylphenyl)-2-(2-methoxy-4-((2-(2-(4-methoxyphenyl)quinoline-4-carbonyl)hydrazono)methyl)phenoxy)acetamide], the melting point was greater than 250 °C. The Ki in data set [3] stood at 25.6 µM. Also, the mode of inhibition entry in data set [3] (Lineweaver–Burk plot) was “competitive”. In data set [1], this compound showed an IC50 of 26 ± 0.8 µM.

With `COc1ccc(-c2cc(C(=O)NN=Cc3ccc(OCC(=O)Nc4ccc(F)cc4)c(OC)c3)c3ccccc3n2)cc1` [11l, N-(4-fluorophenyl)-2-(2-methoxy-4-((2-(2-(4-methoxyphenyl)quinoline-4-carbonyl)hydrazono)methyl)phenoxy)acetamide], the melting point is greater than 250 °C. The “Concentrations of precipitation” value in data set [2] is listed as no less than 190 µM. This compound returned an IC50 in data set [1] greater than 750 µM.

On to `COc1ccc(-c2cc(C(=O)NN=Cc3ccc(OCC(=O)Nc4ccc(Br)cc4)c(OC)c3)c3ccccc3n2)cc1` [11m, N-(4-bromophenyl)-2-(2-methoxy-4-((2-(2-(4-methoxyphenyl)quinoline-4-carbonyl)hydrazono)methyl)phenoxy)acetamide], for which the melting point is greater than 250 °C. Also, the “Concentrations of precipitation” value in data set [2] was no less than 190 µM. The compound further came in with an IC50 in data set [1] of 152 ± 1.7 µM.

For the compound `COc1ccc(-c2cc(C(=O)NN=Cc3ccc(OCC(=O)Nc4ccc(Cl)cc4)c(OC)c3)c3ccccc3n2)cc1` [11n, N-(4-chlorophenyl)-2-(2-methoxy-4-((2-(2-(4-methoxyphenyl)quinoline-4-carbonyl)hydrazono)methyl)phenoxy)acetamide], the melting point is greater than 250 °C. The “Concentrations of precipitation” value in data set [2] is listed as no less than 190 µM. This compound came in with an IC50 in data set [1] of 48.7 ± 0.9 µM.

`COc1ccc(-c2cc(C(=O)NN=Cc3ccc(OCC(=O)Nc4ccc([N+](=O)[O-])cc4)c(OC)c3)c3ccccc3n2)cc1` [11o, 2-(2-methoxy-4-((2-(2-(4-methoxyphenyl)quinoline-4-carbonyl)hydrazono)methyl)phenoxy)-N-(4-nitrophenyl)acetamide] came in with a melting point greater than 250 °C. The same compound yielded an IC50 in data set [1] of 459.8 ± 1.5 µM.

As for `O=C(O)c1ccc2ccccc2n1` [A], the IC50 in data set [4] (setting [6]) was 9.1 µM.

Regarding `O=C(O)c1cnc2ccccc2c1` [B], in data set [4] (setting [6]), the IC50 was 10.6 µM.

Take `O=C(CSc1nc2ccccc2cc1-c1nc2ccccc2[nH]1)Nc1ccc2ccccc2c1` [C]: the IC50 in data set [4] was 3.2 µM.

Turning to `O=C(NCCCC1OC(CO)C(O)C(O)C1O)c1cc(-c2ccccc2)nc2ccccc12` (centres unmarked) [D], the IC50 in data set [4] was 7.98 µM.

In the case of `O=C(N/N=C/c1cccc(F)c1)c1ccc2nc(-c3ccccc3)c(-c3ccccc3)nc2c1` [E], the IC50 in data set [4] was 111 µM.

As for `COc1ccc(-c2nc3cc(C(=O)N/N=C/c4ccc(O)c(OC)c4)ccc3[nH]2)cc1` [F], in data set [4], the IC50 was 60.1 µM.

`COc1cc(/C=N/NC(=O)CC#N)ccc1OCc1cn(Cc2ccc(Cl)cc2)nn1` [G]: in data set [4], the IC50 is 1 µM.

On to `CCc1ccc(NC(=O)Cn2cc(COc3ccc(-c4nc5ccccc5[nH]4)cc3)nn2)cc1` [H], for which, in data set [4], the Ki was 23 µM and the mode of inhibition result is “competitive”.

With `COc1cc(-c2nc3ccccc3[nH]2)ccc1OCC(=O)Nc1ccc(F)cc1` [I], in data set [5], the α-amylase inhibition was 45.0 ± 0.8%. In data set [4], the IC50 is 99.6 µM, the Ki is 67 µM and the mode of inhibition entry is on record as “competitive”.

In the case of `COc1cc(-c2nc3ccccc3c(=O)[nH]2)ccc1OCC(=O)Nc1ccccc1F` [J], in data set [4], the IC50 is 14.4 µM.
